Assay type in all cases: in vivo
Experiment [1] concerns mixtures of weeds: Cockspur (Echinochloa crus-galli), Fat-hen (Chenopodium album), Smartweed (Polygonum persicaria). Put plainly: Field trial: adjuvant effect on Glyphosate herbicidal activity on mixed weed plots. To be noted: glyphosate 1080 g(a.e.).ha^-1, adjuvant 540 g.ha^-1 (2:1). The procedure:
This Example tests the effect of adjuvants on Glyphosate herbicidal activity under field conditions. The herbicide was applied to test plots of weeds at a rate of 1080 g(a.e.).ha^−1 (350 l.ha^−1 of spray containing 3.086 g.l^−1 a.e.) with a weight ratio of active to adjuvant of 2:1=540 g(adjuvant).ha^−1. Spray plots were treated with the herbicide formulations, one of each of four adjuvants of the invention (SE1, SE2, SE3, and SE4) a fatty amine ethoxylate (FAE1) for comparison, or left untreated as controls (no weed control). The spray plots were in a completely randomised block design with 3 replicates of 3×5 m plots. the sprayed plots were sprayed using a compressed-air AZO sprayer at a pressure of 2.5 bar, equipped with Teejet XR80015VS nozzles. During this trial, it rained for about 15 minutes about 2 hours after spraying, giving a good indication of the rainfastness off the formulations tested.
The test plots used mixtures of the following weeds at the 2 to 4 leaf stage:
The results of spraying were evaluated by visual comparison with untreated control blocks 12, 20 and 35 days after treatment (DAT), assessing chlorosis (chlor) and growth inhibition (inhib) as percentages with 0=no effect and 100=complete kill as compared with the untreated controls.

In another experiment the test system is Savoy cabbage. Put plainly: Field trial, lower glyphosate rate, varying adjuvant rate. To be noted: Sav C, 14 DAT. As to the method: (§1) In this Example, adjuvants of the invention (SE2), plus TAE1 as control, were tested in field trials in formulations including glyphosate (isopropylamine salt) as a herbicide on flax, pea, Savoy cabbage (Sav C) and Italian ryegrass (It R) as target crops. The application rate was 1080 g(a.e).ha^−1, with adjuvant at an application rate of 405 g.ha^−1 (75% of the normal application rate for adjuvants in such formulations of 540 g.ha^−1). The effectiveness of the formulations was by visual assessment of Growth Reduction (Gr Red) and Chlorosis/Necrosis (Chlor) 6 DAT with the values being reported in % (related to an untreated control=0% effect). Further field trial runs were carried out similar to Example AE4 on pea and Savoy cabbage as target crops at a lower application rate of glyphosate (570 g(a.e.).ha^−1) and using varying application rates for the adjuvant (135, 270 and 405 g.ha^−1) with the formulation components being mixed in the spray tank.

The subject of a further experiment is pea. Described as above. To be noted: 14 DAT. As to the method:
as §1

[2] abbreviates: glyphosate 570 g(a.e.).ha^-1, adjuvant 135 g/ha.
Setting [3] is: glyphosate 570 g(a.e.).ha^-1, adjuvant 270 g/ha.
The mark [4] stands for this setting: glyphosate 570 g(a.e.).ha^-1, adjuvant 405 g/ha.

“1-[Bis-(2-hydroxyethyl)-amino]-2-hydroxypropane-3-(Alc1 15-ethoxylate) [SE2]”: the “inhib (%) growth inhibition” value is 70% in experiment [1] (12 DAT), 75% in experiment [1] (20 DAT) and 77% in experiment [1] (35 DAT). Also, the “chlor (%) chlorosis” value stood at 68% in experiment [1] (12 DAT, 0=no effect, 100=complete kill); 75% in experiment [1] (20 DAT); 77% in experiment [1] (35 DAT). Besides, the “% necrosis” value with Savoy cabbage (setting [2]) stood at 40%; in the experiment on Savoy cabbage (setting [3]) it was 40%; in the experiment on Savoy cabbage (setting [4]) it was 60%; in the experiment on pea (setting [2]), 70%; in the experiment on pea (setting [3]), 90%; in the experiment with pea (setting [4]) it was 95%.

The record behind these values is patent publication US20050170966A1, “Surfactants and surfactant compositions” (priority 2002, published 2005).
